Source: the supplement of paper PMC10307832

How the values were obtained:
Test in all cases: relative viability (nuclei count vs DMSO), 5 days (fraction); higher = more cells survive
[1] = compound: C1/C(=C\C2=CC=CS2)/C(=O)/C(=C/C3=CC=CS3)/C1 + O=C(CCCCCCC(=O)Nc1ccccc1)NO [Vorinostat] (partner 1 µM)
Outline: (§1)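 Lung cancer cell lines were seeded in 1536-well plates and dosed by pin tool the next day, with either a single drug or a fixed anchor-drug dose combined with five library-drug doses (not always all listed) spaced in √10 steps. Five days later, one step fixed the cells and stained their nuclei (final 0.05% Triton X-100, 1% formaldehyde, 1 ug/ml Hoechst), and nuclei were counted on 4× images. Relative viability is the nuclei count in treated wells divided by the count in vehicle wells, and each value is the median of duplicate plates.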

[2] = compound: C1/C(=C\C2=CC=CS2)/C(=O)/C(=C/C3=CC=CS3)/C1 + CC1(C)CCC(c2ccc(Cl)cc2)=C(CN2CCN(c3ccc(C(=O)NS(=O)(=O)c4ccc(N[C@H](CCN5CCOCC5)CSc5ccccc5)c(S(=O)(=O)C(F)(F)F)c4)cc3)CC2)C1 [Navitoclax] (partner 0.5 µM)
Outline: as §1

[3] = compound: C1=CC(=CC=C1C2=CC(=C(S2)NC(=O)N)C(=O)N)F [TPCA-1] + O=C(CCCCCCC(=O)Nc1ccccc1)NO [Vorinostat] (partner 1 µM)
Outline: as §1

Row | Cell Line | relative viability ([1]; first compound 0.2 µM) | relative viability ([1]; first compound 0.6325 µM) | relative viability ([1]; first compound 2 µM) | relative viability ([1]; first compound 6.325 µM) | relative viability ([1]; first compound 20 µM) | relative viability ([2]; first compound 0.2 µM) | relative viability ([2]; first compound 0.6325 µM) | relative viability ([2]; first compound 2 µM) | relative viability ([2]; first compound 6.325 µM) | relative viability ([2]; first compound 20 µM) | relative viability ([3]; first compound 0.04 µM) | relative viability ([3]; first compound 0.1265 µM) | relative viability ([3]; first compound 0.4 µM) | relative viability ([3]; first compound 1.265 µM) | relative viability ([3]; first compound 4 µM)
1 | 201T | 0.965 | 0.951 | 1.07 | 0.728 | 0.935 | 1.24 | 1.17 | 1.27 | 1.13 | 1.2 | 1.02 | 0.951 | 0.99 | 0.937 | 0.886
2 | A549 | – | – | – | – | – | 1.32 | 1.33 | 1.24 | 1.02 | 1.19 | – | – | – | – | –
3 | A-427 | 0.884 | 0.838 | 0.855 | 0.828 | 0.89 | 1.03 | 1.02 | 0.982 | 0.852 | 0.92 | 0.891 | 0.806 | 0.927 | 0.912 | 0.227
4 | ABC-1 | 1.17 | 0.964 | 1.5 | 0.724 | 1.24 | – | – | – | – | – | 1.4 | 1.14 | 1.38 | 1.29 | 0.926
5 | BEN | 0.64 | 0.537 | 0.661 | 0.566 | 0.535 | 0.0742 | 0.059 | 0.368 | 0.0733 | 0.0554 | 0.56 | 0.543 | 0.624 | 0.634 | 0.441
6 | CAL-12T | 0.724 | 0.91 | 0.648 | 0.77 | 0.788 | 1.31 | 1.35 | 1.35 | 0.844 | 1.05 | 0.763 | 0.523 | 0.762 | 0.733 | 0.568
7 | COR-L23 | 0.475 | 0.597 | 0.477 | 0.348 | 0.451 | 1.06 | 1.09 | 1.02 | 0.864 | 0.967 | 0.502 | 0.424 | 0.484 | 0.292 | 0.153
8 | COR-L 105 | 0.653 | 0.969 | 0.852 | 0.391 | 0.669 | 0.623 | 0.772 | 0.79 | 0.737 | 0.701 | 1.02 | 0.709 | 0.766 | 0.628 | 0.391
9 | Calu-6 | – | – | – | – | – | 0.855 | 0.848 | 0.91 | 0.811 | 0.857 | – | – | – | – | –
10 | ChaGo-K-1 | 0.761 | 0.749 | 0.703 | 0.511 | 0.254 | 1.01 | 0.964 | 1.11 | 0.698 | 0.727 | 0.781 | 0.694 | 0.796 | 0.665 | 0.295
11 | EBC-1 | – | – | – | – | – | 0.439 | 0.469 | 0.478 | 0.398 | 0.497 | – | – | – | – | –
12 | EKVX | 0.893 | 0.625 | 0.873 | – | 0.678 | 0.999 | 0.87 | 0.916 | 0.912 | 0.919 | 0.724 | 0.622 | 0.766 | 0.76 | 0.654
13 | EMC-BAC-2 | 0.351 | 0.473 | 0.453 | 0.455 | 0.489 | 1.21 | 1.11 | 1.13 | 1.05 | 1.1 | 0.461 | 0.447 | 0.615 | 0.413 | 0.203
14 | EPLC-272H | 0.464 | 0.384 | 0.615 | 0.318 | 0.358 | 1.28 | 0.965 | 1.15 | 1.09 | 0.95 | 0.53 | 0.403 | 0.523 | 0.256 | 0.258
15 | H3255 | 0.756 | 0.856 | 0.427 | 0.758 | 0.875 | 0.583 | 0.501 | 0.669 | 0.393 | 0.453 | 0.82 | 0.461 | 0.819 | 0.694 | 0.512
16 | HARA | 0.722 | 0.498 | 0.641 | 0.485 | 0.458 | 1.1 | 1.15 | 1.13 | 0.497 | 1.11 | 0.55 | 0.51 | 0.528 | 0.433 | 0.361
17 | HCC-15 | 0.876 | 0.846 | 0.842 | 0.772 | 0.743 | 0.696 | 0.676 | 0.682 | 0.621 | 0.615 | 0.914 | 0.758 | 0.84 | 0.782 | 0.806
18 | HCC-44 | 1.09 | 1.08 | 1.01 | 0.995 | 1.03 | 0.903 | 0.987 | 0.935 | 0.832 | 0.895 | 1.09 | 1.07 | 0.95 | 1.1 | 0.85
19 | HCC-78 | 0.51 | 0.401 | 0.441 | 0.425 | 0.385 | 0.81 | 0.786 | 0.82 | 0.682 | 0.782 | 0.445 | 0.422 | 0.42 | 0.469 | 0.28
20 | HCC-366 | 0.41 | 0.381 | 0.373 | 0.324 | 0.425 | 1.09 | 1 | 0.955 | 1.05 | 1.05 | – | 0.288 | 0.359 | 0.285 | 0.0534
21 | HCC-827 | 0.999 | 0.897 | 0.908 | 0.764 | 0.822 | 1.1 | 0.966 | 1.01 | 0.959 | 1.02 | 0.987 | 0.764 | 0.89 | 0.841 | 0.671
22 | HOP-62 | 0.733 | 0.681 | 0.646 | 0.51 | 0.68 | 0.985 | 1.23 | 0.8 | 0.952 | 1.06 | 0.771 | 0.52 | 0.688 | 0.381 | 0.176
23 | IA-LM | 0.959 | 1.09 | 1.01 | 0.885 | 0.852 | 0.938 | 0.925 | 0.88 | 0.565 | 0.704 | 1.02 | 0.942 | 0.999 | – | 0.699
24 | LC-2-ad | 0.696 | 0.745 | 0.711 | 0.647 | 0.64 | 0.451 | 0.451 | 0.399 | 0.406 | 0.49 | 0.742 | 0.69 | 0.705 | 0.716 | 0.155
